Results reported in US20130296347A1, “Compositions and Methods for Prophylaxis and Treatment of Addictions” (Omeros Corporation, priority 2007, published 2013).

Tested on: Wistar rats
Test: FR5 cocaine self-administration
Type: in vivo, rat
Conditions: pioglitazone both 10.0 and 30.0 mg/kg OS 12 hours and 1 hour before session
Procedure: […]. Drug or vehicle solution was infused at a volume of 0.1 ml over 4 s.
Male Wistar rats weighing between 180 and 200 g at the time of arrival in the lab were used. The rats were housed in groups of three in a humidity- and temperature-controlled (22° C.) vivarium on a 12 h: 12 h reverse light/dark cycle (on, 17:00; off, 05:00) with ad libitum access to food and water. One week after arrival, rats were subjected to surgery, and a silastic catheter was implanted into the right jugular vein.
Cocaine self-administration training continued until a stable baseline of responding was reached (less than 10% variation for 3 consecutive days calculated for each single rat). At this point, drug testing begun.
. […] A 3-day interval was allowed between drug testing. During these intervals, cocaine self-administration was continued to re-establish baseline lever responses.

With `CCc1ccc(CCOc2ccc(CC3SC(=O)NC3=O)cc2)nc1.Cl` (stereo not shown) [pioglitazone] the cocaine self-administration was “significant (p<0.01) reduction”.
